The target in one assay is T1, COX I (Homo sapiens, UniProt P23219).
T1 construct: made in house
Briefly: Inhibition of COX I in vitro, radiometric assay with partially purified enzyme. It is filed as biochemical. As to conditions: 10 min preincubation, 20 micromolar [14C] arachidonic acid. The protocol:
(§1) The COX I and COX II inhibitory activity of compounds of this invention in vitro was determined using partially purified COX I and COX II enzymes, prepared as described in J. Bamett et al., Biochim. Biophys. Acta, 1209,130-139 (1994).
(§2) COX I and COX II samples were diluted with Tris-HCl buffer (50 mM Tris-HCl, pH 7.9) containing 2 mM EDTA and 10% glycerol and reconstituted by incubating first with 2 mM phenol for 5 minutes and then with 1 micromolar hematin for an additional 5 minutes. 125 μL of the reconstituted COX I or COX II enzyme were preincubated for 10 minutes at room temperature in a shaking water bath with the compounds of the invention dissolved in 2-15 μL of DMSO or the carrier vehicles (control samples). The enzyme reaction was initiated by adding 25 μL of 1-[14 C] arachidonic acid (80,000-100,000 cpm/tube; 20 micromolar final concentration) and the reaction was allowed to continue for an additional 45 seconds. The reaction was terminated by adding 100 μL is of 2N HCl and 750 μL water. An aliquot (950 μL) of the reaction mixture was loaded onto a 1 mL C18 Sep-Pak column (J. T. Baker, Phillipsburg, N.J.) which had been previously washed with 2-3 mL methanol and equilibrated with 5-6 mL distilled water. Oxygenated products were quantitatively eluted with 3 mL of acetonitrile/water/acetic acid (50:50:0.1, v/v) and the radioactivity in the eluate determined in a scintillation counter. Compounds of this invention were active in this assay for COX II.
(§3) The COX inhibitory activities (expressed as IC50, the concentration causing 50% inhibition of the COX enzyme being assayed) of some exemplary compounds of the invention were: […]

The next assay addresses T2, COX II (Homo sapiens, UniProt P35354).
T2 construct: made in house
T2 sequence (P35354 18-604): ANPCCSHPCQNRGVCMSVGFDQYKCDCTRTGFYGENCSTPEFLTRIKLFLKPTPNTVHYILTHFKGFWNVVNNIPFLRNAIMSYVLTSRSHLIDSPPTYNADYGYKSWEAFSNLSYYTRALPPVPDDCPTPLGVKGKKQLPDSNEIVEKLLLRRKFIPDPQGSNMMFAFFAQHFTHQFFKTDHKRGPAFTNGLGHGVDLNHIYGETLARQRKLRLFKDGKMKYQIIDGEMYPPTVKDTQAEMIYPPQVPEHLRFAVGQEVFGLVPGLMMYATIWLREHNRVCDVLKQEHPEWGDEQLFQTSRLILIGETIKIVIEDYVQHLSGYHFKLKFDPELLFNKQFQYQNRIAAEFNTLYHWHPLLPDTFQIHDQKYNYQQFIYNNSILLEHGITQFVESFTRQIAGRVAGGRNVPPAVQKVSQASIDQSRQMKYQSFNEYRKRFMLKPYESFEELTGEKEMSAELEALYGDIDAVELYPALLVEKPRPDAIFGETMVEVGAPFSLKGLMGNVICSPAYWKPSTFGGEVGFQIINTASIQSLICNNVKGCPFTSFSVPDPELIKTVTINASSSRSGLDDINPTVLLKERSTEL
Nature of the assay: Inhibition of COX II in vitro, radiometric assay with partially purified enzyme. Type of assay: biochemical. The conditions noted are these: 10 min preincubation, 20 micromolar [14C] arachidonic acid. How it is done:
as §1, §2, §3

SMILES strings stand for the structures.

These results are taken from patent publication US6433005B1, “Benzofuran and benzothiophene derivatives as anti-inflammatory agents” (Syntex (U.S.A.) LLC, priority 2000, dated 2002).

By IC50 is commonly meant the concentration needed to halve the response being measured.

T1 sequence (P23219 24-599): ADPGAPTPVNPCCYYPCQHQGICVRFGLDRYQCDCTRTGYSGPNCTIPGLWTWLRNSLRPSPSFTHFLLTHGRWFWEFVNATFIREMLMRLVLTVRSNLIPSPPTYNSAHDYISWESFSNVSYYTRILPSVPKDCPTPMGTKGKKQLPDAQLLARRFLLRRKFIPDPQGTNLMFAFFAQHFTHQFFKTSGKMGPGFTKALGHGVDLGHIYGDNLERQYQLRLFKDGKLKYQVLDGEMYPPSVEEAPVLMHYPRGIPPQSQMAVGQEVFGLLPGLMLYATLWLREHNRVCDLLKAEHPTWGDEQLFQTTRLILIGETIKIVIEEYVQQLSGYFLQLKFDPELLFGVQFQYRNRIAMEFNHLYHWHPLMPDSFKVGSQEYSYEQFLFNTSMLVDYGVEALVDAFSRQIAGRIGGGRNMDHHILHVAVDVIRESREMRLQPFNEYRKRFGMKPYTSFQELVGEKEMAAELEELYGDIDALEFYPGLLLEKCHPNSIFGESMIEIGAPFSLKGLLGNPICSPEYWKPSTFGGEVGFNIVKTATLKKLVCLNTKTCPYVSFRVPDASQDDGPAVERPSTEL

With `CS(=O)(=O)c1ccc2c(Sc3ccccc3Cl)c(C#N)sc2c1` [Cpd 17, 3-(2-chloro-phenylsulfanyl)-6-methanesulfonyl-benzo[b]thiophene-2-carbonitrile], the IC50 against COX I is more than 120 µM; at COX II it was less than 1 µM.

For `CS(=O)(=O)c1ccc2c(Sc3ccc(Cl)cc3Cl)c(C#N)sc2c1` [Cpd 19, 3-(2,4-dichloro-phenylsulfanyl)-6-methanesulfonyl-benzo[b]thiophene-2-carbonitrile], the IC50 against COX I is more than 120 µM; at COX II, less than 1.5 µM.

Consider `CS(=O)(=O)c1ccc2c(Sc3ccc(F)cc3)c(C#N)sc2c1` [Cpd 26, 3-(4-fluoro-phenylsulfanyl)-6-methanesulfonyl-benzo[b]thiophene-2-carbonitrile], for which the IC50 at COX I is more than 120 µM; on COX II, less than 1.5 µM.

As to `CS(=O)(=O)c1ccc2c(Sc3ccccc3F)c(C#N)sc2c1` [Cpd 30, 3-(2-fluoro-phenylsulfanyl)-6-methanesulfonyl-benzo[b]thiophene-2-carbonitrile], the IC50 against COX I is more than 120 µM; against COX II, less than 1.2 µM.

`CCOc1ccc(Oc2c(C#N)sc3cc(S(C)(=O)=O)ccc23)cc1` [Cpd 31, 3-(4-ethoxy-phenoxy)-6-methanesulfonyl-benzo[b]thiophene-2-carbonitrile]: the figures for the concentration for half-maximal inhibition (IC50) against COX I and against COX II were more than 120 µM and less than 1.5 µM, respectively.
